Source: article PMC6805442, “Discovery of low-molecular weight anti-PD-L1 peptides for cancer immunotherapy” (Journal for Immunotherapy of Cancer, 2019)
Where two headings read alike, the source gives them in different places. No end group written: not given here.

Tests used:
[1] = biological target: T1, human PD-1/PD-L1 interaction (hPD-L1 protein) (Homo sapiens, UniProt Q9NZQ7); assay: Blockade of the human PD-1/PD-L1 interaction, plate coated with human PD-L1 protein; format: biochemical; conditions: for Block Efficiency: hPD-L1 protein, blocking profile (Fig. 2d, e)
T1 construct: G&P Biosciences, human PD-L1 ECD, cat# FCL0784B; purchased G&P Biosciences FCL0784B (PD-L1)
Experimental: (§1) Ninety-six-well plates were coated with 100 ng of PD-L1 protein (G&P Biosciences, human PD-L1 ECD, cat# FCL0784B. mouse PD-L1, cat# FCL3502B) and later blocked with 2% BSA for 2 h at room temperature. Various concentrations of peptides were loaded into the wells and incubated for 1 h at room temperature. […] Streptavidin-HRP (R&D systems) and chromogenic substrate were added into the wells. OD450 was then recorded and referenced to OD540.
(§2) We next examined the blocking efficiency of the anti-PD-L1 peptides at 10 μM (Fig. 2c). […] We also determined IC50 of each peptide using recombinant human PD-L1 protein and DU-145 cancer cells.

[2] = biological target: human PD-L1/CD80 interaction (Homo sapiens, UniProt Q9NZQ7); assay: Blockade of the CD80/PD-L1 interaction; format: biochemical; conditions: for blocking efficiency, CD80/PD-L1: 10 μM
Source text: The CD80/PD-L1 interaction specifically restrains T cell activation, and blockade of the interaction could enhance the anti-tumor activity of the T cells. […] We, therefore, investigated whether the anti-PD-L1 peptides block the CD80/PD-L1 interaction.
Supplementary file 40425_2019_705_MOESM1_ESM.png: Additional file 1: Figure S1. Blockade of the PD-L1/CD80 interaction by anti-PD-L1 peptides and antibody. […] IC50 and blocking efficiency of CLP002 (b) and CLP003 (c) against the human PD-L1/CD80 interaction. Results are represented as the mean ± SD (n = 3).

[3] = biological target: T2, mouse PD-1/PD-L1 interaction (mPD-L1 protein) (Mus musculus, UniProt Q9EP73); assay: Blockade of the mouse PD-1/PD-L1 interaction, mouse PD-L1 protein; format: biochemical; conditions: for Block Efficiency: mPD-L1 protein, blocking profile (Fig. 2h, i)
T2 construct: purchased G&P Biosciences FCL3502B (PD-L1)
Experimental: as §1
By contrast, the blocking efficiency of the anti-mouse PD-L1 antibody was 92%.

[4] = biological target: T3, recombinant human PD-L1 ECD protein (Homo sapiens, UniProt Q9NZQ7); assay: SPR binding to human PD-L1; conditions: for kon: read-out: Ka
T3 construct: the recombinant human PD-L1 ECD protein were evaluated using SPR; purchased G&P Biosciences FCL0784B
Experimental: Binding affinities of the PD-L1 specific peptides for human PD-L1 protein were determined by SPR (BI4500, Biosensing Instrument). PD-L1 protein was diluted to 10 μg/mL with sodium acetate buffer (pH 5.0, GE Healthcare, PA) and covalently coated onto a CM5 sensor chip (CM Dextran Sensor Chip, Biosensing Instrument) using the standard Amine Coupling Kit (GE Healthcare, PA). Approximately 6500 RU of PD-L1 protein were immobilized onto the chip. A second channel was used as a reference. HBS-EP+ buffer (GE Healthcare) was employed at a flow rate of 60 μL/min. A series of concentrations of each peptide (15, 30, 60, 125, 250, 500, 1000, 5000 and 10,000 nM) were prepared in HBS-EP+ running buffer to obtain the equilibrium dissociation constant (KD) values of the peptides. The CM5 sensor chip was regenerated with 10 mM NaOH for 20 s. The results were analyzed using the software of Bi data analysis software.
Binding affinities of the discovered peptides against the recombinant human PD-L1 ECD protein were evaluated using SPR. The PD-L1 protein was immobilized on a CM5 golden chip by the direct amine coupling method. […] Even though the binding affinity of peptides are generally lower than that of antibodies, the very high affinity of antibodies may result in on-target, off-tumor toxicity in healthy tissues that express low levels of PD-L1. In a recent study, scientists constructed several chimeric antigen receptor (CAR) T cells with different affinities to ICAM-1. […] CAR-T cells with nanomolar affinity lyse healthy cells that express a low level of ICAM-1. By contrast, CAR-T cells with micromolar affinity only attack tumor cells with high levels of ICAM-1 but not healthy cells with low levels of ICAM-1, leading to less toxicity.

[5] = biological target: T4, PD-1/PD-L1 interaction on mouse cancer cell line 4 T1 (Mus musculus, UniProt Q9EP73); assay: Blockade of the PD-1/PD-L1 interaction on 4T1 cells; format: cell-based; conditions: for Block Efficiency: blocking profile (Fig. 2h, j)
T4 construct: endogenous in cells; host or cells: 4T1

[6] = biological target: T5, PD-1/PD-L1 interaction on DU-145 cells (Homo sapiens, UniProt Q9NZQ7); assay: Blockade of the PD-1/PD-L1 interaction, plate coated with DU-145 cells; format: cell-based; conditions: for Block Efficiency: DU145 cancer cells, blocking profile (Fig. 2d, f)
T5 construct: when the plate was coated with DU-145 cells; endogenous in cells; host or cells: DU-145
Experimental: as §1, §2

T2 sequence (Q9EP73 19-239 limits assumed): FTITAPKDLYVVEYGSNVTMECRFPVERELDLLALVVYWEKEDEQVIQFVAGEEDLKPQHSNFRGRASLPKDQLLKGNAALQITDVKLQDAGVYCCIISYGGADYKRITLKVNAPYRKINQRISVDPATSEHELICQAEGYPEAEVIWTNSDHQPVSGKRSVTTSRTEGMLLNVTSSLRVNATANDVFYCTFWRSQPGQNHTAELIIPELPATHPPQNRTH
T5 sequence (Q9NZQ7 19-290): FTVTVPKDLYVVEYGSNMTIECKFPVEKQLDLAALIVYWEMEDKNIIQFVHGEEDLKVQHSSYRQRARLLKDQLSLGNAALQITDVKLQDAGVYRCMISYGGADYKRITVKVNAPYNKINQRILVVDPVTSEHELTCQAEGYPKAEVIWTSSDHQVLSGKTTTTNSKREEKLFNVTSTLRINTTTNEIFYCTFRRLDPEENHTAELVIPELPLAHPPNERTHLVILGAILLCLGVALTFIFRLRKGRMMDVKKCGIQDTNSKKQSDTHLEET
T4 sequence (Q9EP73 19-290): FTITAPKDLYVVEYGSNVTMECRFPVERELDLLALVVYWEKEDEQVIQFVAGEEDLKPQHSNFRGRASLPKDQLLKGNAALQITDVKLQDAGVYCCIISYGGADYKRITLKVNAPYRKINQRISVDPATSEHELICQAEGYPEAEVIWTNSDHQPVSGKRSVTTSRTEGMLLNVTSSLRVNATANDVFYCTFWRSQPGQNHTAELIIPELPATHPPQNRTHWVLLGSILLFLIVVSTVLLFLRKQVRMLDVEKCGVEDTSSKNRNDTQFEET
T3 sequence (Q9NZQ7 19-238 limits assumed): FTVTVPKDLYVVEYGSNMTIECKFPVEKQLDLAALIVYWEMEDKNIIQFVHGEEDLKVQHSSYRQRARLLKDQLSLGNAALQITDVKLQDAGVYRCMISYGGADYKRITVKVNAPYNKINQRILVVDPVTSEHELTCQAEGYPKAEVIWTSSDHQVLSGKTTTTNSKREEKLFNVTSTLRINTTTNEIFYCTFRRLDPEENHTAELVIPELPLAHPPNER
Chain of human PD-L1/CD80 interaction (Q9NZQ7 19-238 limits assumed): as above
T1 sequence (Q9NZQ7 19-238 limits assumed): as above

Sequence: DYHDPSLPTLRK [CLP004]
- Block Efficiency [1]: 52%
- blocking efficiency, CD80/PD-L1 [2]: ~27%
- Block Efficiency [3]: 48%
- kon [4]: 5140 ± 390 M⁻¹ s⁻¹
- IC50 ([5]; 4T1 cancer cells): 730 nM
- Block Efficiency ([5]; 4T1 cancer cells): 34%
- IC50 ([6]; DU145 cancer cells coated on the plate): 200 nM
- Block Efficiency [6]: 60%

Sequence: HYPFRPHANQAS [CLP001]
- Block Efficiency [1]: 0%
- blocking efficiency, CD80/PD-L1 [2]: approximately 17%
- Block Efficiency [3]: 34%
- kon [4]: 5190 ± 212 M⁻¹ s⁻¹
- IC50 ([5]; 4T1 cancer cells): 910 nM
- Block Efficiency ([5]; 4T1 cancer cells): 35%
- Block Efficiency [6]: 0%

Sequence: WHFSYNWRWLPP [CLP003]
- kon [4]: 22600 M⁻¹ s⁻¹

Sequence: WHRSYYTWNLNT [CLP002]
- IC50 [1]: 2170 nM
- Block Efficiency [1]: 85%
- IC50 [2]: 2450 nM
- blocking efficiency, CD80/PD-L1 [2]: ~48%
- IC50 [3]: 1910 nM
- blocking efficiency ([3]; 10 μM, mouse PD-L1 protein (Fig. 2g)): 71%
- Block Efficiency [3]: 68%
- Kd ([4]; SPR, human PD-L1 immobilized on CM5 chip (~6500 RU), HBS-EP+, 60 μL/min, peptide 15-10,000 nM, mean ± SD (n = 3)): 366 nM
- kon [4]: 4520 ± 666 M⁻¹ s⁻¹
- IC50 [5]: 2440 nM
- Block Efficiency ([5]; 4T1 cancer cells): 61%
- IC50 [6]: 1430 nM
- Block Efficiency [6]: 80%
